US9243247B2, “Composition for promoting apoptosis or inhibiting cell growth, comprising epstein-barr virus microrna” (Catholic University Industry Academic Cooperation Foundation, priority 2011, dated 2016)
Entries after “also recorded” stand apart in the source; their conditions may differ.

How the values were obtained:
Assay type in all cases: cell-based
3′UTR of TAX1BP1 = experiment: Dual luciferase reporter assay (psiCHECK) in HEK293T, TAX1BP1 3'UTR; conditions: psiCHECK with TAX1BP1 3′UTR, 48 hours after transfection
Excerpt: For an miRNA target test, to psiCHECK, which is a luciferase vector (FIG. 9) specially designed for an miRNA target test including a firefly gene and a renilla gene in the same vector, a 3′UTR of the five genes shown in Table 5, which might be targeted by miR-BART15-3p, was individually cloned to prepare a vector for a target test for each of the genes.
HEK293T was divided into a 96-well plate such that 5×10^3 cells were allocated to each well, and miR-BART15-3p and a vector for a target test were transfected by using lipofectamine2000. Forty eight hours after the transfection, a dual luciferase reporter assay (Virology. 412(2), 392-400 (2011)) was performed to normalize the results with reference to firefly luciferase and observe a variation of the renilla luciferase gene expression. […] The renilla value was not decreased by […] which was formed by mutating a seed part of miR-BART15-3p (FIG. 10).

BIRC6 mRNA = BIRC6 mRNA level by QRT-PCR; conditions: AGS; 48 hours after transfection
Procedure: miR-BART15-3p was transfected to AGS by using lipofectamine-2000. Forty eight hours after the transfection, the cells were harvested and a QRT-PCR and a Western blotting were performed (FIGS. 12A and 12B). The BIRC6 mRNA level was not changed in the AGS to which miR-BART15-3p was transfected, while the protein level was decreased.
An miR-BART15-3p inhibitor was transfected to AGS-EBV by using lipofectamine-2000. Forty eight hours after the transfection, the cells were harvested and a QRT-PCR and a Western blotting were performed (FIGS. 12C and 12D). The BIRC6 mRNA level was not changed in the AGS-EBV to which an miR-BART15-3p inhibitor was transfected, while the protein level was increased.

AGS cell strain = experiment: Cell growth test (CCK-8 assay) after transfection of BART miRNA mimics; conditions: for Relative Cell Growth: relative to scrambled control (=1)
Outline: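 EBV-negative AGS gastric cells in RPMI1640 with 10% FBS, seeded 1×10^3 cells/well and transfected with synthetic mature BART miRNA mimics (10 nM; dose series 1, 3, 10, 30 nM) via G-fectin. Growth read by CCK-8 after 72 h (or over time), 2 h at 37 °C, absorbance measured.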

## BART15-3p: EBV BART miRNA mimic, double stranded RNA; sense SEQ NO: 15, antisense SEQ NO: 16 (sense GUCAGUGGUUUUGUUUCCUUGA; antisense UCAAGGAAACAAAACCACUGAC; chemistry not given here)
3′UTR of TAX1BP1
  renilla value (renilla luciferase, normalized to firefly): decrease
BIRC6 mRNA
  BIRC6 mRNA level: not changed
AGS cell strain; 3 nM, 72 hours after transfection
  cell growth lower than that of a scrambled control: 50%
AGS cell strain; 10 nM, 72 hours after transfection
  cell growth: almost no cell growth
AGS cell strain; 30 nM, 72 hours after transfection
  cell growth: almost no cell growth
AGS cell strain; mimic 10 nM, 72 hours after transfection, n=9
  Relative Cell Growth: 0.5676
AGS cell strain; mimic 10 nM, 72 hours after transfection, n=9, listed as miR-BART15-3p
  Relative Cell Growth: inhibited cell growth
AGS cell strain; mimic 10 nM, depending on treatment time, listed as miR-BART15-3p
  cell growth over time: greatly decreased cell growth; also recorded: inhibited cell growth almost entirely
